Patent publication US20060235076A1, “Medicinal composition for treating infection with drug-resistant staphylococcus aureus” (priority 2003, published 2006)
≈ marks a conversion by molar mass, not a printed value. Like-named read-outs stand apart in the source and are kept apart here.

Key:
Assay type in all cases: cell-based, Staphylococcus aureus
MRSA and MSSA [1] = experiment: Enhancing activity for the antibacterial activity of oxacillin by various gallates (agar plate dilution method, oxacillin MIC); details: MRSA and MSSA
Protocol: (§1) According to the agar plate dilution method defined by Japan Society of Chemotherapy, MIC (Minimum inhibitory concentration) was determined. CAMHA was prepared by adding 50 mg/l of Ca-ion, 25 mg/l of Mg-ion, and 2% of NaCl to Mueller-Hinton II Agar (MHA), and it was used as a medium for use in the measurement of sensitivity. The bacterial liquid was incubated at 37° C. overnight and diluted to 10^6 CFU/ml with saline.

MRSA and MSSA [2] = experiment: Antibacterial activity of gallic acid, various gallates and multivalent phenol derivatives alone (agar plate dilution method, MIC); details: Staphylococcus aureus
Summary of the method: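 Agar plate dilution MIC per Japan Society of Chemotherapy, on Mueller-Hinton II agar supplemented with 50 mg/l Ca-ion, 25 mg/l Mg-ion and 2% NaCl. Inoculum grown overnight at 37 °C and diluted in saline to 10^6 CFU/ml. Compounds tested alone.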

MRSA = experiment: Potentiating effect of isoamyl gallate for the antibacterial activity of other β-lactams (agar plate dilution method, MIC)
Protocol: as §1

[3] = system: MRSA COL and MRSA Strain No. 5; experiment: Potentiating effect of various gallates for antibacterial activity of oxacillin (MIC by broth microdilution method and FIC); details: for FIC value: combination with oxacillin
Summary of the method: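 Broth microdilution MIC per Japan Society of Chemotherapy method in cation-adjusted Mueller-Hinton broth (50 mg/l Ca, 25 mg/l Mg, 2% NaCl); inoculum 5×10^5 CFU/well from overnight 37° C culture. Gallate–oxacillin combinations evaluated by FIC.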

[4] = COL, compound alone, read-out: MIC
[5] = MRSA #1, compound alone, read-out: MIC
[6] = MRSA #2, compound alone, read-out: MIC
[7] = MRSA #3, compound alone, read-out: MIC
[8] = MRSA #4, compound alone, read-out: MIC
[9] = MRSA #5, compound alone, read-out: MIC
[10] = MRSA #6, compound alone, read-out: MIC
[11] = MRSA #7, compound alone, read-out: MIC
[12] = MRSA #8, compound alone, read-out: MIC
[13] = MRSA #9, compound alone, read-out: MIC
[14] = MRSA #10, compound alone, read-out: MIC
[15] = MRSA #12, compound alone, read-out: MIC
[16] = MRSA #16, compound alone, read-out: MIC
[17] = MRSA #17, compound alone, read-out: MIC
[18] = MRSA #18, compound alone, read-out: MIC
[19] = MRSA #20, compound alone, read-out: MIC
[20] = MRSA #21, compound alone, read-out: MIC
[21] = MRSA #22, compound alone, read-out: MIC
[22] = MRSA #24, compound alone, read-out: MIC
[23] = MSSA #1003, compound alone, read-out: MIC
[24] = MSSA #1010, compound alone, read-out: MIC
[25] = MSSA #1020, compound alone, read-out: MIC
[26] = MSSA #1023, compound alone, read-out: MIC
[27] = MSSA #1029, compound alone, read-out: MIC
[28] = MSSA #1032, compound alone, read-out: MIC
[29] = RN4220, with isoamyl gallate 25 mg/ml

CC(C)CCOC(=O)c1cc(O)c(O)c(O)c1 [isoAmyl gallate, Isoamyl gallate]
effect of combination use with oxacillin (words) (MRSA and MSSA [1]): potent effects of the combination use | MIC50 (MRSA and MSSA [2]): 62.5 µg/mL (≈ 260 µM) | MIC (MRSA and MSSA [2]; ATCC 6538 / MRSA / MSSA): 62.5 µg/mL (≈ 260 µM) | MIC (MRSA and MSSA [2]; [4]): 62.5 µg/mL (≈ 260 µM) | MIC (MRSA and MSSA [2]; [5]): 62.5 µg/mL (≈ 260 µM) | MIC (MRSA and MSSA [2]; [6]): 62.5 µg/mL (≈ 260 µM) | MIC (MRSA and MSSA [2]; [7]): 62.5 µg/mL (≈ 260 µM) | MIC (MRSA and MSSA [2]; [8]): 62.5 µg/mL (≈ 260 µM) | MIC (MRSA and MSSA [2]; [9]): 62.5 µg/mL (≈ 260 µM) | MIC (MRSA and MSSA [2]; [10]): 62.5 µg/mL (≈ 260 µM) | MIC (MRSA and MSSA [2]; [11]): 62.5 µg/mL (≈ 260 µM) | MIC (MRSA and MSSA [2]; [12]): 62.5 µg/mL (≈ 260 µM) | MIC (MRSA and MSSA [2]; [13]): 62.5 µg/mL (≈ 260 µM) | MIC (MRSA and MSSA [2]; [14]): 31.3 µg/mL (≈ 130 µM) | MIC (MRSA and MSSA [2]; [15]): 62.5 µg/mL (≈ 260 µM) | MIC (MRSA and MSSA [2]; [16]): 62.5 µg/mL (≈ 260 µM) | MIC (MRSA and MSSA [2]; [17]): 62.5 µg/mL (≈ 260 µM) | MIC (MRSA and MSSA [2]; [18]): 62.5 µg/mL (≈ 260 µM) | MIC (MRSA and MSSA [2]; [19]): 62.5 µg/mL (≈ 260 µM) | MIC (MRSA and MSSA [2]; [20]): 62.5 µg/mL (≈ 260 µM) | MIC (MRSA and MSSA [2]; [21]): 125 µg/mL (≈ 520 µM) | MIC (MRSA and MSSA [2]; [22]): 125 µg/mL (≈ 520 µM) | MIC (MRSA and MSSA [2]; [23]): 125 µg/mL (≈ 520 µM) | MIC (MRSA and MSSA [2]; [24]): 62.5 µg/mL (≈ 260 µM) | MIC (MRSA and MSSA [2]; [25]): 62.5 µg/mL (≈ 260 µM) | MIC (MRSA and MSSA [2]; [26]): 62.5 µg/mL (≈ 260 µM) | MIC (MRSA and MSSA [2]; [27]): 62.5 µg/mL (≈ 260 µM) | MIC (MRSA and MSSA [2]; [28]): 62.5 µg/mL (≈ 260 µM) | Ampicillin MIC (MRSA; [29]): 63 µg/mL | Cefapirin MIC (MRSA; [29]): 63 µg/mL | effects of the combination use with other β-lactams (MRSA; with penicillin G, cefoxitin, ampicillin, and cefapirin): excellent effects of the combination use | FIC value ([3]; MRSA COL): 0.25 | FIC value ([3]; MRSA Strain No. 5): 0.313

CC(C)COC(=O)c1cc(O)c(O)c(O)c1 [isoButyl gallate, isobutyl gallate]
effect of combination use with oxacillin (words) (MRSA and MSSA [1]): potent effects of the combination use | MIC50 (MRSA and MSSA [2]): 125 µg/mL (≈ 553 µM) | MIC (MRSA and MSSA [2]; ATCC 6538 / MRSA / MSSA): 125 µg/mL (≈ 553 µM) | MIC (MRSA and MSSA [2]; [4]): 125 µg/mL (≈ 553 µM) | MIC (MRSA and MSSA [2]; [5]): 125 µg/mL (≈ 553 µM) | MIC (MRSA and MSSA [2]; [6]): 62.5 µg/mL (≈ 276 µM) | MIC (MRSA and MSSA [2]; [7]): 125 µg/mL (≈ 553 µM) | MIC (MRSA and MSSA [2]; [8]): 125 µg/mL (≈ 553 µM) | MIC (MRSA and MSSA [2]; [9]): 125 µg/mL (≈ 553 µM) | MIC (MRSA and MSSA [2]; [10]): 62.5 µg/mL (≈ 276 µM) | MIC (MRSA and MSSA [2]; [11]): 125 µg/mL (≈ 553 µM) | MIC (MRSA and MSSA [2]; [12]): 125 µg/mL (≈ 553 µM) | MIC (MRSA and MSSA [2]; [13]): 62.5 µg/mL (≈ 276 µM) | MIC (MRSA and MSSA [2]; [14]): 62.5 µg/mL (≈ 276 µM) | MIC (MRSA and MSSA [2]; [15]): 125 µg/mL (≈ 553 µM) | MIC (MRSA and MSSA [2]; [16]): 125 µg/mL (≈ 553 µM) | MIC (MRSA and MSSA [2]; [17]): 125 µg/mL (≈ 553 µM) | MIC (MRSA and MSSA [2]; [18]): 125 µg/mL (≈ 553 µM) | MIC (MRSA and MSSA [2]; [19]): 125 µg/mL (≈ 553 µM) | MIC (MRSA and MSSA [2]; [20]): 125 µg/mL (≈ 553 µM) | MIC (MRSA and MSSA [2]; [21]): 125 µg/mL (≈ 553 µM) | MIC (MRSA and MSSA [2]; [22]): 125 µg/mL (≈ 553 µM) | MIC (MRSA and MSSA [2]; [23]): 125 µg/mL (≈ 553 µM) | MIC (MRSA and MSSA [2]; [24]): 125 µg/mL (≈ 553 µM) | MIC (MRSA and MSSA [2]; [25]): 125 µg/mL (≈ 553 µM) | MIC (MRSA and MSSA [2]; [26]): 125 µg/mL (≈ 553 µM) | MIC (MRSA and MSSA [2]; [27]): 62.5 µg/mL (≈ 276 µM) | MIC (MRSA and MSSA [2]; [28]): 125 µg/mL (≈ 553 µM) | effect of the combination use with oxacillin by FIC values ([3]; COL Strain and Strain No. 5): most potent effect of the combination use | FIC value ([3]; MRSA COL): 0.129 | FIC value ([3]; MRSA Strain No. 5): 0.266
